Measured values reported in ChEMBL document CHEMBL1201862, “PubChem BioAssay data set” (2004).
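In this assay, cells in 96-well plates receive the compound at five concentrations for 48 hours. Endpoints are linearly interpolated between the surrounding concentrations. GI50: concentration for 50% inhibition of growth.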 The source made the active and inactive calls. Cut-off read from the data, not from the text of the source: active = GI50 up to about 1.1 µM and inactive = higher.

Legend:
Assay in all cases: NCI anticancer screen, dose series, 48 h
[1] = tested on: 786-0
[2] = tested on: CCRF-CEM
[3] = tested on: COLO 205
[4] = tested on: HCC 2998
[5] = tested on: HCT-15
[6] = tested on: HOP-92
[7] = tested on: HT-29
[8] = tested on: KM12
[9] = tested on: MDA-MB-435
[10] = tested on: MOLT-4
[11] = tested on: Malme-3M
[12] = tested on: NCI-H522
[13] = tested on: NCI/ADR-RES
[14] = tested on: OVCAR-3
[15] = tested on: OVCAR-5
[16] = tested on: OVCAR-8
[17] = tested on: RXF 393
[18] = tested on: SK-MEL-5
[19] = tested on: SNB-75
[20] = tested on: TK-10

Row | Compound | GI50 [1] | GI50 [2] | GI50 [3] | GI50 [4] | GI50 [5] | GI50 [6] | GI50 [7] | GI50 [8] | GI50 [9] | GI50 [10] | GI50 [11] | GI50 [12] | GI50 [13] | GI50 [14] | GI50 [15] | GI50 [16] | GI50 [17] | GI50 [18] | GI50 [19] | GI50 [20]
1 | CCOC(=O)/C=C(\C)Sc1cc(O)c2ccccc2c1O | 19.8 µM (inactive) | 6.64 µM (inactive) | 17.3 µM (inactive) | 8.97 µM (inactive) | 17.4 µM | 21.2 µM (inactive) | 22.2 µM (inactive) | 28.6 µM (inactive) | 2.65 µM (inactive) | 8.05 µM (inactive) | 9.66 µM (inactive) | 10.1 µM (inactive) | 25.3 µM (inactive) | 28.6 µM (inactive) | 24.4 µM (inactive) | 16.5 µM (inactive) | 14.9 µM (inactive) | 12.6 µM (inactive) | 10.1 µM (inactive) | 23.7 µM (inactive)
2 | ON[C@H]1C[C@@H](n2cnc3c(NC4CC4)ncnc32)[C@H](O)[C@@H]1O | > 100 µM (inactive) | > 100 µM (inactive) | > 100 µM (inactive) | > 100 µM (inactive) | > 100 µM | > 100 µM (inactive) | > 100 µM (inactive) | > 100 µM (inactive) | > 100 µM (inactive) | > 100 µM (inactive) | > 100 µM (inactive) | > 100 µM (inactive) | > 100 µM (inactive) | > 100 µM (inactive) | > 100 µM (inactive) | > 100 µM (inactive) | > 100 µM (inactive) | > 100 µM (inactive) | > 100 µM (inactive) | > 100 µM (inactive)
3 | c1ccc2c(c1)/C(=N\NC1=NCCN1)c1nc3ccccc3nc1-2 | 3.91 µM (inactive) | 3.8 µM (inactive) | 2.17 µM (inactive) | 4.91 µM (inactive) | 3.52 µM | 2.58 µM (inactive) | 0.521 µM (active) | 3.88 µM (inactive) | 6.32 µM (inactive) | 1.13 µM (inactive) | 10.2 µM (inactive) | 2.84 µM (inactive) | 5.85 µM (inactive) | 3.24 µM (inactive) | 6.64 µM (inactive) | 1.35 µM (inactive) | 2.71 µM (inactive) | 2.6 µM (inactive) | 0.923 µM (active) | 14.1 µM (inactive)
4 | CCOC(=O)c1c(SC(=O)c2cc(OC)c(OC)c(OC)c2)n(-c2ccccc2)c(=S)n(-c2ccccc2)c1=O | > 100 µM (inactive) | > 100 µM (inactive) | > 100 µM (inactive) | > 100 µM (inactive) | > 100 µM | > 100 µM (inactive) | > 100 µM (inactive) | > 100 µM (inactive) | > 100 µM (inactive) | > 100 µM (inactive) | 51.8 µM (inactive) | > 100 µM (inactive) | > 100 µM (inactive) | > 100 µM (inactive) | > 100 µM (inactive) | > 100 µM (inactive) | > 100 µM (inactive) |  | > 100 µM (inactive) | > 100 µM (inactive)
5 | CC1(c2nc3cc(Cl)c(Cl)cc3[nH]2)CCC(CO)C(C)(C)O1 (stereo not drawn) | 42 µM (inactive) | 27.9 µM (inactive) | 25.1 µM (inactive) | 32.2 µM (inactive) | 35.6 µM | 44 µM (inactive) | 16.4 µM (inactive) | 15.1 µM (inactive) | 41.4 µM (inactive) | 24.5 µM (inactive) | 24.5 µM (inactive) | 6.49 µM (inactive) | 17.7 µM (inactive) | 29.5 µM (inactive) | 82.2 µM (inactive) | 19.5 µM (inactive) | 47.4 µM (inactive) | 13.2 µM (inactive) | 14.8 µM (inactive) | 27.6 µM (inactive)
6 | CN(C)CCCNc1c2ccccc2nc2cccc([N+](=O)[O-])c12 | < 0.001 µM (active) | 0.00824 µM (active) | < 0.001 µM (active) | < 0.001 µM (active) | < 0.001 µM | < 0.001 µM (active) | < 0.001 µM (active) | 0.00117 µM (active) | < 0.001 µM (active) | 0.01 µM (active) | < 0.001 µM (active) | < 0.001 µM (active) | 0.00798 µM (active) | 0.0143 µM (active) | 0.00217 µM (active) | 0.0195 µM (active) | 0.00118 µM (active) | < 0.001 µM (active) | 0.00204 µM (active) | 0.00215 µM (active)
7 | Cc1ccc(C2=Nn3c(nc4sc(C)c(C)c4c3=O)SC2)cc1 | > 100 µM (inactive) | > 10 µM (inactive) | > 100 µM (inactive) | > 100 µM (inactive) | > 100 µM | > 100 µM (inactive) | > 100 µM (inactive) | > 100 µM (inactive) | > 100 µM (inactive) | > 100 µM (inactive) | > 100 µM (inactive) | > 100 µM (inactive) | > 100 µM (inactive) | > 100 µM (inactive) | > 100 µM (inactive) | > 100 µM (inactive) | > 100 µM (inactive) | > 100 µM (inactive) | 56.4 µM (inactive) | 23.3 µM (inactive)
8 | COc1ccc(Br)c2c1CC(C(=O)O)CC2 (stereo not drawn) | > 100 µM (inactive) | > 100 µM (inactive) | > 100 µM (inactive) | > 100 µM (inactive) | > 100 µM | > 78.5 µM (inactive) | > 100 µM (inactive) | > 100 µM (inactive) | > 100 µM (inactive) | > 100 µM (inactive) | > 100 µM (inactive) | > 100 µM (inactive) | > 100 µM (inactive) | > 100 µM (inactive) | > 100 µM (inactive) | > 100 µM (inactive) | > 100 µM (inactive) | > 100 µM (inactive) | > 100 µM (inactive) | > 100 µM (inactive)
9 | Cn1/c(=N\N=C2\C=C3CCCCC3(C)CC2)sc2ccccc21 (stereo not drawn) | > 100 µM (inactive) | 55.2 µM (inactive) | > 100 µM (inactive) | > 100 µM (inactive) | > 100 µM | > 100 µM (inactive) | > 100 µM (inactive) | > 100 µM (inactive) | > 100 µM (inactive) |  | > 100 µM (inactive) | > 100 µM (inactive) | > 100 µM (inactive) | > 100 µM (inactive) | > 100 µM (inactive) | > 100 µM (inactive) | > 100 µM (inactive) | > 100 µM (inactive) | 47.1 µM (inactive) | > 100 µM (inactive)
10 | N#Cc1ccc(Oc2nc3ccc(C(F)(F)F)cc3nc2-c2ccccc2)cc1 | 17.1 µM (inactive) | 20.4 µM (inactive) | 21.5 µM (inactive) | 17 µM (inactive) | 14.9 µM | 12.6 µM (inactive) | 16.7 µM (inactive) | 20.5 µM (inactive) | 17.7 µM (inactive) | 20 µM (inactive) | 17.8 µM (inactive) | 15.6 µM (inactive) | 16.9 µM (inactive) | 21.8 µM (inactive) | 13.4 µM (inactive) | 14.9 µM (inactive) | 26.4 µM (inactive) | 19.7 µM (inactive) | 14.1 µM (inactive) | 19.5 µM (inactive)
11 | O=C(/C=C/c1csc(-c2ccccc2)n1)NCc1ccc(C(=O)NCc2ccccc2)cc1 | 33 µM (inactive) | > 100 µM (inactive) | > 100 µM (inactive) | > 100 µM (inactive) | > 100 µM | 24.4 µM (inactive) | 41.2 µM (inactive) | > 100 µM (inactive) | > 100 µM (inactive) | > 100 µM (inactive) | 92 µM (inactive) | 64.7 µM (inactive) | 50.8 µM (inactive) | > 100 µM (inactive) | > 100 µM (inactive) | 26.4 µM (inactive) | 61 µM (inactive) | > 100 µM (inactive) | 19.2 µM (inactive) | 31.9 µM (inactive)
12 | COc1cc2c(cc1C1COc3cc4occc4cc3C1=O)OCO2 (stereo not drawn) | > 100 µM (inactive) | > 100 µM (inactive) | > 100 µM (inactive) | 98.6 µM (inactive) | 35.9 µM | 91 µM (inactive) | 41.2 µM (inactive) | > 100 µM (inactive) | > 100 µM (inactive) | 4.05 µM (inactive) | 89.1 µM (inactive) | > 100 µM (inactive) | 17.1 µM (inactive) | > 100 µM (inactive) | > 100 µM (inactive) | 21.1 µM (inactive) | 36.3 µM (inactive) | > 100 µM (inactive) | > 100 µM (inactive) | 29.4 µM (inactive)
13 | C[n+]1cn(-c2nc3ccccc3nc2[N-]S(=O)(=O)c2ccccc2)c2ccccc21 | > 100 µM (inactive) | > 100 µM (inactive) | > 100 µM (inactive) | > 100 µM (inactive) | > 100 µM | > 100 µM (inactive) | > 100 µM (inactive) | > 100 µM (inactive) | > 100 µM (inactive) | > 100 µM (inactive) | > 100 µM (inactive) | 0.222 µM (active) | > 100 µM (inactive) | > 100 µM (inactive) | > 100 µM (inactive) | > 100 µM (inactive) | 62.2 µM (inactive) | > 100 µM (inactive) | > 100 µM (inactive) | > 100 µM (inactive)
14 | ClCC[N+]12CC[N+](CCCl)(CC1)C2 | > 100 µM (inactive) | > 100 µM (inactive) | > 100 µM (inactive) | > 100 µM (inactive) | > 100 µM | > 100 µM (inactive) | > 100 µM (inactive) | > 100 µM (inactive) | > 100 µM (inactive) | > 100 µM (inactive) | > 100 µM (inactive) | > 100 µM (inactive) | > 100 µM (inactive) | > 100 µM (inactive) | > 100 µM (inactive) | > 100 µM (inactive) | > 100 µM (inactive) | > 100 µM (inactive) | > 100 µM (inactive) | > 100 µM (inactive)
